One assay deals with T1, E. coli BW25113.
T1 construct: BW25113
The assay can be described thus: microbe, parasite or virus in culture. Set-up: Broth dilution growth at OD600 in Ca/HEPES:YPSC, 29 °C, Gompertz-fit MIC. Conditions: Escherichia coli, BW25113, 24 h; Ca/HEPES:YPSC, 29 °C, non-standard MIC. How it is done: Serial antibiotic dilutions in 100 µL Ca/HEPES were made along the rows of 96-well plates including controls without antibiotic. E. coli BW25113 cells from an overnight culture were washed and re-suspended in Ca/HEPES buffer to a final OD600 of 0.024. Aliquots of 50 µL of this E. coli suspension and 50 µL of a fresh YPSC broth were added to the wells of these plates and the blank measured at 600 nm. Final OD600 measurements were carried out after an incubation of 24 hours at 29 °C under shaking conditions. Data is shown as percentage of growth and plotted in a graph against the logarithm of antibiotic concentration. MIC values were calculated by fitting data with a Gompertz modified equation[15] (using GraphPad Prism 5). […] Antibiotics characterized by a high B. bacteriovorus/E. coli MIC ratio, such as amikacin, kanamycin, gentamicin and aztreonam (Table 1), are of particular interest for a B. bacteriovorus based co-therapy against E. coli infections.

The next assay deals with T2, B. bacteriovorus HD100.
T2 construct: HD100
Description: microbe, parasite or virus in culture. Set-up: species or system B. bacteriovorus HD100 with E. coli BW25113 prey; Predatory growth on E. coli prey, OD600 reduction, Gompertz-fit MIC by linear regression at PPR 0.02. Particulars: Escherichia coli, HD100, 24 h; co-culture with E. coli BW25113 prey, theoretical MIC at PPR 0.02. As to the method:
Two-fold serial dilutions of antibiotics (Table S6) were made along the rows of 96-well plates (BRANDplates pureGrade^TM S, no. 781662) in 100 µL Ca/HEPES buffer (5.94 g/L HEPES free acid, 0.284 g/L calcium chloride 2·H2O, adjusted to pH 7.6 with NaOH), including controls (no antibiotic present). B. bacteriovorus cultures were diluted by a factor of 25 in Ca/HEPES buffer. B. bacteriovorus two-fold serial dilutions were prepared in a new sterile 96-well plate along the column line (using as diluent a suspension of heat-inactivated B. bacteriovorus), including controls (no viable B. bacteriovorus present). Fifty µL of these dilution series were transferred from each well of the latter plate to the corresponding wells of plates with antibiotic dilution series. Subsequently, 50 µL of an E. coli BW25113 overnight culture grown in YPSC broth was added to each plate well. At this point, which corresponds to time zero, the blank was determined by measuring the OD600 of cell suspensions in a plate reader (TECAN Infinite 200 Pro). Final OD600 measurements were carried out after an incubation of 24 hours at 29 °C under shaking conditions (300 rpm, 3 mm throw). The number of E. coli cells was estimated by reading the OD600 of the overnight culture prior to the beginning of the assay. The number of viable B. bacteriovorus cells was estimated by plating in double layer YPSC agar plates as explained elsewhere. Following an incubation time of three days at 29 °C, the number of B. bacteriovorus cells in the initial inoculation culture was estimated by counting plaque forming units (PFU). Enumeration of B. bacteriovorus by plaques count ensures that only viable cells are counted and, in our experience, is preferable over other methods based on microscopy and/or fluorescence. Pictures of plaques were acquired by the aid of a plaque visualization chamber, specially developed in this study for this purpose (Fig. S9). All absorbance values were subtracted of the related blanks. Then, absorbance values of test samples (B. bacteriovorus co-cultures) were subtracted from the control values (E. coli without B. bacteriovorus) and plotted in graph against the logarithm of antibiotic concentrations. The resulting Δ curve is an indication of B. bacteriovorus growth. Data was expressed as percentage of growth and plotted in a graph of log(inhibitor) vs. response. The minimal inhibitory concentration (MIC) value was defined as the concentration of antibiotic that prevent B. bacteriovorus growth and were calculated by fitting B. bacteriovorus growth inhibition curves with a Gompertz modified equation[15] (using GraphPad Prism 5). […] Direct cell growth measurements of B. bacteriovorus upon prey bacteria can be estimated by reduction of the optical density at 600 nm (OD600) (i.e. the loss of culture turbidity by B. bacteriovorus-induced lysis of prey cells). In this study, we designed a 96-well based method for the determination of antibiotic MICs for B. bacteriovorus. B. bacteriovorus HD100 cells were added to an E. coli culture and the reduction of OD600 measured in absence and presence of different concentrations of antibiotics. Assays were conducted in a solution of Ca/HEPES buffer and the exhausted medium transferred with the E. coli overnight culture and the B. bacteriovorus dilution. Therefore, E. coli cells were in the stationary phase and their growth during the assays was negligible. […] MIC values are dependent on the initial PPR used in the assay, as standard MIC assays are dependent on the initial bacterial concentration. However, B. bacteriovorus numbers and therefore, the initial PPR can be estimated reliably only after the assay by plating in double layer agar plates. The relation between initial PPR and MIC values was then investigated by adding different numbers of B. bacteriovorus cells to the fixed number of E. coli prey cells in parallel replicated experiments (on different rows of the same plate containing replicated antibiotic serial dilutions). […]

Values after ≈ are worked out from the molar mass of the structure shown.

With `O=C(N[C@H](CO)[C@H](O)c1ccc([N+](=O)[O-])cc1)C(Cl)Cl` [Chloramphenicol], the MIC against E. coli BW25113 was 10 µg/mL (≈ 30.9 µM); in the assay with B. bacteriovorus HD100 it was 0.16 µg/mL (≈ 0.495 µM).

For `NC[C@H]1O[C@H](O[C@H]2[C@H](O)[C@@H](O[C@H]3O[C@H](CO)[C@@H](O)[C@H](N)[C@H]3O)[C@H](N)C[C@@H]2N)[C@H](O)[C@@H](O)[C@@H]1O` [Kanamycin], the MIC was 0.081 µg/mL (≈ 0.167 µM) with E. coli BW25113 and 0.69 ± 0.06 µg/mL (≈ 1.42 µM) against B. bacteriovorus HD100.

Consider `CNC(C)[C@@H]1CC[C@@H](N)[C@@H](O[C@H]2[C@H](O)[C@@H](O[C@H]3OC[C@](C)(O)[C@H](NC)[C@H]3O)[C@H](N)C[C@@H]2N)O1` (stereo partly shown) [Gentamicin], for which the MIC against E. coli BW25113 was determined as 0.0084 µg/mL (≈ 0.0176 µM); against B. bacteriovorus HD100, 0.06 µg/mL (≈ 0.126 µM).

Consider `C[C@H]1[C@H](NC(=O)/C(=N\OC(C)(C)C(=O)O)c2csc(N)n2)C(=O)N1S(=O)(=O)O` [Aztreonam], for which the MIC with E. coli BW25113 came to 5.7 µg/mL (≈ 13.1 µM); with B. bacteriovorus HD100, 41 ± 4 µg/mL (≈ 94.2 µM).

For `CC1(C)S[C@@H]2[C@H](NC(=O)[C@H](N)c3ccccc3)C(=O)N2[C@H]1C(=O)O` [Ampicillin], the MIC against E. coli BW25113 turned out to be 5.4 µg/mL (≈ 15.5 µM); with B. bacteriovorus HD100 it was 1.3 ± 0.2 µg/mL (≈ 3.72 µM).

On to `CCN1CCN(C(=O)N[C@@H](C(=O)N[C@@H]2C(=O)N3[C@@H]2SC(C)(C)[C@@H]3C(=O)O)c2ccccc2)C(=O)C1=O` [Piperacillin], for which the results for the MIC with E. coli BW25113 and in the assay with B. bacteriovorus HD100 were 122 µg/mL (≈ 236 µM) and 2.5 ± 0.5 µg/mL (≈ 4.83 µM), respectively.

For the compound `CC1(C)S[C@@H]2[C@H](NC(=O)Cc3ccccc3)C(=O)N2[C@H]1C(=O)O` [Penicillin G], the values for the MIC against E. coli BW25113 and against B. bacteriovorus HD100 were 19 µg/mL (≈ 56.8 µM) and 3.4 ± 0.5 µg/mL (≈ 10.2 µM), respectively.

Consider `O=C(O)c1cn(C2CC2)c2cc(N3CCNCC3)c(F)cc2c1=O` [Ciprofloxacin], for which the MIC against E. coli BW25113 turned out to be 0.13 µg/mL (≈ 0.392 µM); in the assay with B. bacteriovorus HD100, 0.31 ± 0.04 µg/mL (≈ 0.936 µM).

As for `CN(C)[C@@H]1C(O)=C(C(N)=O)C(=O)[C@@]2(O)C(O)=C3C(=O)c4c(O)cccc4[C@@](C)(O)[C@H]3C[C@@H]12` [Tetracycline], the results for the MIC with E. coli BW25113 and with B. bacteriovorus HD100 were 4.8 µg/mL (≈ 10.8 µM) and 1.7 ± 0.2 µg/mL (≈ 3.83 µM), respectively.

On to `N[C@@H](C(=O)N[C@@H]1C(=O)N2C(C(=O)O)=C(Cl)CS[C@H]12)c1ccccc1` [Cefaclor], for which the results for the MIC against E. coli BW25113 and against B. bacteriovorus HD100 were 10 µg/mL (≈ 27.2 µM) and 18 ± 2 µg/mL (≈ 48.9 µM), respectively.

`CCC[C@@H]1C[C@@H](C(=O)N[C@@H]([C@H]2O[C@H](SC)[C@H](O)[C@@H](O)[C@H]2O)[C@@H](C)O)N(C)C1` [Lincomycin]: the MIC with B. bacteriovorus HD100 was determined as 7.9 ± 0.9 µg/mL (≈ 19.4 µM).

As to `CN(C)c1cc(NC(=O)CNC(C)(C)C)c(O)c2c1C[C@H]1C[C@H]3[C@H](N(C)C)C(O)=C(C(N)=O)C(=O)[C@@]3(O)C(O)=C1C2=O` [Tigecycline], the results for the MIC with E. coli BW25113 and in the assay on B. bacteriovorus HD100 were 2.3 µg/mL (≈ 3.93 µM) and 0.59 ± 0.01 µg/mL (≈ 1.01 µM), respectively.

In the case of `NCC[C@H](O)C(=O)N[C@@H]1C[C@H](N)[C@@H](O[C@H]2O[C@H](CN)[C@@H](O)[C@H](O)[C@H]2O)[C@H](O)[C@H]1O[C@H]1O[C@H](CO)[C@@H](O)[C@H](N)[C@H]1O` [Amikacin], the MIC in the assay on E. coli BW25113 is 0.06 µg/mL (≈ 0.102 µM); against B. bacteriovorus HD100, 0.7 ± 0.02 µg/mL (≈ 1.2 µM).

In the case of `CN[C@H](CC(C)C)C(=O)N[C@H]1C(=O)N[C@@H](CC(N)=O)C(=O)N[C@H]2C(=O)N[C@H]3C(=O)N[C@H](C(=O)N[C@H](C(=O)O)c4cc(O)cc(O)c4-c4cc3ccc4O)[C@H](O)c3ccc(c(Cl)c3)Oc3cc2cc(c3O[C@@H]2O[C@H](CO)[C@@H](O)[C@H](O)[C@H]2O[C@H]2C[C@](C)(N)[C@H](O)[C@H](C)O2)Oc2ccc(cc2Cl)[C@H]1O` [Vancomycin], in the assay with B. bacteriovorus HD100, the MIC worked out at 16 ± 1 µg/mL (≈ 11 µM).

Consider `C[C@H]1COc2c(N3CCN(C)CC3)c(F)cc3c(=O)c(C(=O)O)cn1c23` [Levofloxacin], for which the MIC amounted to 0.064 µg/mL (≈ 0.177 µM) with E. coli BW25113 and 0.23 ± 0.02 µg/mL (≈ 0.636 µM) against B. bacteriovorus HD100.

For the compound `Cc1nnc(SCC2=C(C(=O)O)N3C(=O)[C@@H](NC(=O)Cn4cnnn4)[C@H]3SC2)s1` [Cefazolin], the MIC amounted to 2 µg/mL (≈ 4.4 µM) against E. coli BW25113 and 0.51 ± 0.07 µg/mL (≈ 1.12 µM) with B. bacteriovorus HD100.

Turning to `CC(C)(O/N=C(\C(=O)N[C@@H]1C(=O)N2C(C(=O)[O-])=C(C[n+]3ccccc3)CS[C@H]12)c1csc(N)n1)C(=O)O` [Ceftazidime], the figures for the MIC in the assay on E. coli BW25113 and in the assay on B. bacteriovorus HD100 were 19 µg/mL (≈ 34.8 µM) and 7.8 ± 0.4 µg/mL (≈ 14.3 µM), respectively.

Take `CCN1CCN(C(=O)N[C@@H](C(=O)N[C@@H]2C(=O)N3C(C(=O)O)=C(CSc4nnnn4C)CS[C@H]23)c2ccc(O)cc2)C(=O)C1=O` [Cefoperazone]: the MIC is 0.6 µg/mL (≈ 0.929 µM) against E. coli BW25113 and 1.3 ± 0.3 µg/mL (≈ 2.01 µM) against B. bacteriovorus HD100.

Regarding `COc1cc(Cc2cnc(N)nc2N)cc(OC)c1OC` [TMP, trimethoprim], the MIC against B. bacteriovorus HD100 stood at 223 ± 24 µg/mL (≈ 768 µM).

Turning to `C[C@@H](O)[C@H]1C(=O)N2C(C(=O)O)=C(S[C@@H]3CN[C@H](C(=O)N(C)C)C3)[C@H](C)[C@H]12` [Meropenem], the MIC in the assay on E. coli BW25113 turned out to be 0.14 µg/mL (≈ 0.365 µM); against B. bacteriovorus HD100, 0.42 ± 0.06 µg/mL (≈ 1.1 µM).

The values above are taken from PMC7093396 (Scientific Reports, 2020).
